Earlier results on two substances are cited in patent publication US8709996B2, “Pharmaceutical treatment process using chitosan or derivative thereof” (Archimedes Development Limited, priority 2003, dated 2014).

The conditions of this data set: pig, in vivo.

Take chitosan hydrochloride: the “bioavailability of octreotide compared to a solution of octreotide alone” value was “substantial increases in bioavailability”.

Take trimethyl chitosan chloride: the “bioavailability of octreotide compared to a solution of octreotide alone” value is recorded as “substantial increases in bioavailability”.
